Data as given in patent publication US10532999B2 (priority 2012, dated 2020).
Values joined by “and” are separate entries in the source; they are usually repeats but may differ in a detail not shown here. Identical values can stand only once. Like-named read-outs stand apart in the source and are kept apart here.

What was measured:
[1] = tested on: VEEV TC-83; test: microbe, parasite or virus in culture; format: cell-based; settings: Venezuelan equine encephalitis virus, Vero 76, read-out: Assay provided VEEV CPE inhibition
[2] = tested on: CYP450 (2C9, 2C19); settings: noted liability, Table 2, cited from earlier work
[3] = Chemical stability of ML336 with or without dithiothreitol (DTT), LCMS; settings: for Averaged Percent ML336 Remaining after 8 h / Percent ML336 Remaining after 8 h: 10 μM in PBS pH 7.4 (1% DMSO), room temperature; for Percent ML336 Remaining after 8 h: single runs
[4] = tested on: VEEV; settings: read-out: Reported VEEV CPE inhibition; cited from earlier work
[5] = ML336 without nucleophile (control)

**Q.** For `Cc1cc(Cc2cc(C)cc(C(C)(C)C)c2O)c(O)c(Cc2cc(C)cc(C(C)(C)C)c2O)c1` [antioxidant 80], which IC50 [1] is on record?
**A.** The IC50 was > 50 µM.

**Q.** What about the “CYP450 (2C9, 2C19) inhibition” value [2] of the same molecule?
**A.** The value was ~3 µM.

**Q.** What about the “CYP450 (2C9, 2C19) inhibition” value ([2]; listed as Antioxidant 80) of the same molecule?
**A.** Its value is “about 3 μM”.

**Q.** Which “adducts detected by LCMS” value ([3]; 50 μM DTT, sampled every hour for eight hours) does the source give for `CN1CCN(C)/C(=N/c2ccc([N+](=O)[O-])cc2C(=O)Nc2ccccc2)C1` [ML336, (E)-2-((1,4-dimethylpiperazin-2-ylidene)amino)-5-nitro-N-phenylbenzamide] here?
**A.** The value was “no adducts were detected”.

**Q.** What about the “Averaged Percent ML336 Remaining after 8 h” value ([3]; ML336 with 5X DTT (50 μM)) of the same molecule?
**A.** Its value is 98.96%.

**Q.** And the “Percent ML336 Remaining after 8 h” value ([3]; ML336 with 5X DTT (50 μM))?
**A.** Its value is 100.36% and 97.55%.

**Q.** And the “Averaged Percent ML336 Remaining after 8 h” value [3, 5]?
**A.** The value was 93.92%.

**Q.** What about the “Percent ML336 Remaining after 8 h” value [3, 5] of the same molecule?
**A.** Its value is 96.13% and 91.70%.

**Q.** Which IC50 [4] does the source give for `COc1cc(NC(=O)Nc2cccc(CNC(=O)O[C@H]3CCOC3)c2)ccc1-c1cnco1` [VX-497] here?
**A.** The IC50 was 19.2 µM.

**Q.** Which IC50 [1] does the source give for `O=C(O)Cc1ccccc1Nc1c(Cl)cccc1Cl` [diclofenac sodium] here?
**A.** The IC50 was > 50 µM.

**Q.** For `NC(=O)c1ncn([C@@H]2O[C@H](CO)[C@@H](O)[C@H]2O)n1` [ribavirin], which IC50 [1] is on record?
**A.** Its IC50 is 126 µM.

**Q.** With `NS(=O)(=O)c1ccc(-n2c(-c3ccccc3)nc3ccc(Br)cc3c2=O)cc1` [quinazolinone] as the molecule, how does the IC50 [1] read?
**A.** Its IC50 is > 25 µM.
